Our source for the Ki and Emax values is patent US5242935A, “Method for treatment of neurodegenerative diseases” (R. J. Reynolds Tobacco Company, priority 1992, dated 1993).

Assay [1] addresses high affinity nicotinic receptors. The experiment in a line: Inhibition of L-[3H]nicotine binding to mouse brain membrane preparations. Also on record: species or system mouse (DBA strain). Particulars: mouse brain membranes, 2 hr at 4° C., Ki calculated from IC50 by Cheng method. How it is done: Mice (DBA strain) were maintained on a 12 hour light/dark cycle and were allowed free access to water and food supplied by Wayne Lab Blox, Madison, WI. Animals used in the present studies were 60 to 90 days of age and weighed 20 to 25 g. Brain membrane preparations were obtained from pooled brain tissue of both males and females.
Mice were killed by cervical dislocation. Brains were removed and placed on an ice-cold platform. The cerebellum was removed and the remaining tissue was placed in 10 volumes (weight:volume) of ice-cold buffer (Krebs-RingersHEPES:NaCl, 118 mM; KCl, 4.8 mM; CaCl2, 2.5 mM; MgSO4, 1.2 mM; HEPES, 20 mM; pH to 7.5 with NaOH) and homogenized with a glass-Teflon tissue grinder. The resulting homogenate was centrifuged at 18000×g for 20 min. and the resulting pellet was resuspended in 20 volumes of water. After 60 min. incubation at 4.C, a new pellet was collected by centrifugation at 18000×g for 20 min. After resuspension in 10 volumes of buffer, a new final pellet was again collected by centrifugation at 18000×g for 20 min. Prior to each centrifugation step, the suspension was incubated at 37° C. for 5 min. to promote hydrolysis of endogenous acetylcholine. The final pellet was overlayered with buffer and stored at -70° C. On the day of the assay, that pellet was thawed, resuspended in buffer and centrifuged at 18000×g for 20 min. The resulting pellet obtained was resuspended in buffer to a final concentration of approximately 5 mg protein/ml. Protein was determined by the method of Lowry, et al., J. Biol. Chem., Vol. 193, pp. 265-275 (1951), using bovine serum albumin as the standard.
The binding of L-[^3 H]nicotine was measured using a modification of the method of Romano, et al., Science, Vol. 210, pp. 647-650 (1980) as described previously by Marks, et al., Mol. Pharmacol., Vol. 30, pp. 427-436 (1986). The binding of L-[^3 H]nicotine was measured using a 2 hr. incubation at 4° C. Incubations contained about 500 μg of protein and were conducted in 12 mm×75 mm polypropylene test tubes in a final incubation volume of 250 μl. The incubation buffer was Krebs-Ringers HEPES containing 200 mM TRIS buffer, pH 7.5. The binding reaction was terminated by filtration of the protein containing bound ligand onto glass fiber filters (Micro Filtration Systems) that had been soaked in buffer containing 0.5 percent polyethyleneimine. Filtration vacuum was -50 to -100 torr. Each filter was washed five times with 3 ml of ice-cold buffer. The filtration apparatus was cooled to 2° C. before use and was kept cold through the filtration process. Nonspecific binding was determined by inclusion of 10 μM nonradioactive nicotine in the incubations. The inhibition of L-[^3 H]nicotine binding by test compounds was determined by including one of eight different concentrations of the test compound in the incubation. Inhibition profiles were measured using 10 nM L-[^3 H]nicotine and IC50 values were estimated as the concentration of compound that inhibited 50 percent of specific L-[^3 H]nicotine binding. Inhibition constants (Ki values) were calculated from the IC50 values using the method of Cheng, et al., Biochem. Pharmacol., Vol. 22, pp. 3099-3108 (1973). […] The L-[^3 H]nicotine used in all experiments was purified chromatographically by the method of Romm, et al., Life Sci., Vol. 46, pp. 935-943 (1990).

For assay [2], the system named is synaptosomes from the striatal area of rat brain. The experiment in a line: [3H]Dopamine release from rat striatal synaptosomes (continuous perfusion). The assay is classed as cell-based, rat (Sprague-Dawley). The following applies: 0.2 ml of a 20 μM solution of ligand, relative to equal concentration of S(-) nicotine, read-out: Dopamine Release (percent release relative to S(-) nicotine). How it is done:
Dopamine release was measured by preparing synaptosomes from the striatal area of rat brain obtained from Sprague-Dawley rats generally according to the procedures set forth by Nagy, et al., J. Neurochem., Vol. 43, pp. 1114-1123 (1984). Striata from 4 rats were homogenized in 2 ml of 0.32M sucrose buffered with 5 mM HEPES (pH 7.5), using a glass-teflon tissue grinder. The homogenate was diluted to 5 ml with additional homogenization solution and centrifuged at 1000×g for 10 min. This procedure was repeated on the new pellet
the resulting supernatant was centrifuged at 12,000×g for 20 min. A 3 layer discontinuous Percoll gradient consisting of 16 percent, 10 percent and 7.5 percent Percoll in HEPES-buffered sucrose was made with the final pellet dispersed in the top layer. After centrifugation at 15,000×g for 20 min., the synaptosomes were recovered above the 16 percent layer with a pasteur pipette, diluted with 8 ml of perfusion buffer (128 mM NaCl, 2.4 mM KCl, 3.2 mM CaCl2, 1.2 mM KH2 PO4, 1.2 mM MgSO4, 25 mM HEPES pH 7.4, 10 mM dextrose, 1 mM ascorbate, 0.01 mM pargyline), and centrifuged at 15,000×g for 20 min. The new pellet was collected and re-suspended in perfusion buffer. The synaptosome suspension was incubated for 10 min. at 37° C. Then [^3 H]dopamine (Amersham, 40-60 Ci/mmol) was added to the suspension to give a final concentration of 0.1 μM in suspension, and the suspension was incubated for another 5 min. Using this method, 30 to 90 percent of the dopamine was taken up into the synaptosomes, as determined by scintillation counting following filtration through glass fiber filters soaked with 0.5 percent polyethyleneimine. A continuous perfusion system was used to monitor release following exposure to each ligand (i.e., 5-fluoronicotine, 5-bromonicotine, 4^1 -methylnicotine, 5'-methylnicotine, and 5-methylnicotine). Synaptosomes were loaded onto glass fiber filters (Gelman type A/E). Perfusion buffer was dripped onto the filters (0.2-0.3 ml/min.) and pulled through the filters with a peristaltic pump. Synaptosomes were washed with perfusion buffer for a minimum of 20 min. before addition of the ligand. After the addition of a 0.2 ml of a 20 μM solution of ligand, the perfusate was collected into scintillation vials at 1 min. intervals and the dopamine released was quantified by scintillation counting. Peaks of radioactivity released above background were summed and the average basal release during that time was subtracted from the total. Release was expressed as a percentage of release obtained with an equal concentration of S(-) nicotine.

In general, Ki refers to a dissociation constant, usually derived from enzyme kinetics or from competition with a known ligand. As for `CC1CC(c2cccnc2)N(C)C1` (racemic) [4^1 -methylnicotine], the inhibition constant Ki in assay [1] was 91 ± 7 nM. Besides, the Emax at 20 µM in assay [2] came out at 40%.

Turning to `Cc1cncc(C2CCCN2C)c1` (racemic) [5-methylnicotine], the inhibition constant Ki in assay [1] is 2 ± 0.8 nM. Also, the Emax at 20 µM in assay [2] is 30%.

As to `CC1CCC(c2cccnc2)N1C` (racemic) [5^1 -methylnicotine], the Ki in assay [1] is 6400 nM. The Emax at 20 µM in assay [2] came to 5%.

As to `CN1CCCC1c1cncc(Br)c1` (racemic) [5-bromonicotine], the Ki in assay [1] was 44 ± 12 nM. The Emax at 20 µM in assay [2] worked out at 65%.

Take `CN1CCCC1c1cncc(F)c1` (racemic) [5-fluoronicotine]: the inhibitory constant (Ki) in assay [1] is 61 ± 16 nM. The Emax at 20 µM in assay [2] was determined as 110%.
